Assay results reported in PMC9969401, “Discovery of 2-(3-Benzamidopropanamido)thiazole-5-carboxylate Inhibitors of the Kinesin HSET (KIFC1) and the Development of Cellular Target Engagement Probes” (Journal of Medicinal Chemistry, 2023).
Where two headings read alike, the source gives them in different places.

Assays:
[1] = system: non-centrosome amplified DLD1 (4N) cells; experiment: Multipolar spindle assay (4N cell line); format: cell-based, human; conditions: for % Multipolarity above baseline @ 15 mM (4N cells): supplementary CSV; for % multipolarity above baseline @ 15 μM (4N cells): 4N DLD1 cells (Table 4)
Text: (§1) The cellular models consisted of chromosomally stable human colon cancer DLD1 diploid (2N) and tetraploid (4N) cells, along with tetraploid centrosome -amplified (4NCA) DLD1 cells and DLD1 HSET knockout (KO) cells. DLD1 2N and 4N cells were generated and characterized as previously described.[27],[41],[42] In order to generate 4NCA cells, we used dihydro-cytochalasin B (DCB) to transiently block cytokinesis and induce tetraploidisation and centrosome amplification in DLD1 cells. Centrosome amplification in 4NCA cells is transient and therefore they were generated from 2N cells for each run of the assay.[27] The DLD1 HSET KO cells were knockout clones generated by CRISPR and validated by sequencing to have a homozygous deletion in the KIFC1 gene.
(§2) Inhibition of HSET-mediated clustering was measured using a phenotypic assay measuring the formation of multipolar metaphase spindles in DLD1 cells with (4NCA) or without (4N) centrosome amplification. 4NCA cells were generated by treating 2N DLD1 cells with 2 μΜ DCB for 24 h, washed, and released in growth media for 24 h. 4N and 4NCA DLD1 cells were plated in 96-well ibidi μ-Clear plates (IB-89626, ibidi) with a no. 1.5 polymer coverslip bottom with optimal imaging properties. To enrich the mitotic population, cells were first treated for 3.5 h with 8 μM pro-TAME (I-440-01M, R&D system), an inhibitor of APC/C that transiently arrests cells in metaphase without affecting the structure of the spindle. Following the initial arrest, cells were treated with HSET compounds in the presence of 8 μM MG-132 (S2619, SelleckChem), a proteasome inhibitor that helps to maintain the metaphase arrest, where the number of spindle poles/cell can be optimally quantified by an automated segmentation analysis.
(§3) Cells were then fixed in methanol and stained for 3 h for mitotic pole marker aurora A (1:1000 610939 mouse anti-IAK1, BD Biosciences) and phosphorylated histone H3 (1:1500 ab47297 anti-histone H3 pS10, Abcam) as a marker of mitotic cells in 1.5% FBS in PBS. Following primary antibody treatment, cells were incubated with secondary antibodies Alexa Fluor 488 goat antimouse and Alexa Fluor 555 goat antirabbit (1:1500, A11029 and A21429, respectively, Life Technologies) together with 1 μg/mL DAPI (D9542, Sigma) in 1.5% FBS in PBS. Image acquisition was performed at 10× using the GE INCELL 2200 High Content Imaging System (Cytiva) and analyzed using the InCell Investigator software. Mitotic cells were identified by high pHH3 staining and were scored as multipolar if they had more than two mitotic spindle poles. The percentage of multipolar mitoses was calculated by dividing the number of multipolar mitoses by the total of all visible mitoses in one well of a 96-well plate (n > 100 for each replicate, two replicates per concentration point).

[2] = molecular target: T1, GST-tagged Eg5 motor domain (Homo sapiens, UniProt P52732); experiment: ADP-Glo Eg5 assay (4.8 μM ATP); format: biochemical; conditions: for IC50: preformed microtubules, 4.8 μM ATP (Table 4)
T1 construct: 4 nM GST-tagged Eg5 motor domain protein (Cytoskeleton, EG01); purchased Cytoskeleton EG01
T1 sequence (P52732 18-359 limits assumed): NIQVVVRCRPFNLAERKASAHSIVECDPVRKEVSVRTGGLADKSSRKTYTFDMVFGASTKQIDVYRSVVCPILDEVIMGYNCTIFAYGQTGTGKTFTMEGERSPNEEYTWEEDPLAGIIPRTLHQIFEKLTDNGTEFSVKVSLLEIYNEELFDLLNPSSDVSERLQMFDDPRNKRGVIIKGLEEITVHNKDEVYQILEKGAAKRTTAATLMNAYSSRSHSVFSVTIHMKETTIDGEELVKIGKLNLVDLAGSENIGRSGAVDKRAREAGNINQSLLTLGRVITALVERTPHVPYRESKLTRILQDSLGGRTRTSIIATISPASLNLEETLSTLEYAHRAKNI
Method: (§4) The HSET or Eg5 ATPase activity was measured using the ADP-Glo Kinase Assay kit (Promega, V9102). The assays were run using final concentrations of 5 nM full-length human N-terminal His-tag HSET or 4 nM GST-tagged Eg5 motor domain protein (Cytoskeleton, EG01) and an assay buffer containing 20 mM HEPES pH 6.8, 10 mM MgCl2, 0.25 mM EGTA, 0.4 mM Triton X-100, and 1 mM DTT. Preformed microtubules (Universal Biologicals Cambridge, bovine MT001-XL, or porcine MT002-XL), which were reconstituted in 15 mM PIPES pH 7, 1 mM MgCl2, and 20 μM paclitaxel, were present at a final assay concentration of 70 μg/mL. A reaction volume of 5 μL was used in Proxiplate 384 plus white assay plates (PerkinElmer, 6008280). To measure compound inhibition, 100 nL of compound dissolved in DMSO or DMSO alone was preincubated with the HSET and microtubules for 10 min before 3 μM Ultra-Pure ATP was added to start the ATPase reaction for the 3 μM ATP HSET assay. For the 500 μM ATP HSET assay, the addition of 500 μM Ultra-Pure ATP was used. For the Eg5 ATPase assay, 4.8 μM Ultra-Pure ATP was used. All reactions were incubated at 25 °C for 80 min and then stopped by the addition of 5 μL of the ADP-Glo reagent. 10 μL of Kinase Detection Reagent was then added after a further 45 min of incubation. The luminescence was read after 45 min on a PheraStar FSX plate reader (BMG Labtech). The data processing was performed using Dotmatics Studies software package. Percentage inhibition was determined based on normalization to high controls (0% inhibition, all reagents with 100 nL of DMSO alone) and low controls (100% inhibition […], without HSET). The IC50 values for each compound were determined using a four-parameter logistic curve fit of % inhibition versus concentration.

[3] = molecular target: T2, recombinant full-length HSET (Homo sapiens, UniProt Q9BW19); experiment: ADP-Glo HSET assay (3 μM ATP), microtubule-stimulated ATPase; format: biochemical
T2 construct: 5 nM full-length human N-terminal His-tag HSET; His-tag (N)
T2 sequence (Q9BW19 1-673): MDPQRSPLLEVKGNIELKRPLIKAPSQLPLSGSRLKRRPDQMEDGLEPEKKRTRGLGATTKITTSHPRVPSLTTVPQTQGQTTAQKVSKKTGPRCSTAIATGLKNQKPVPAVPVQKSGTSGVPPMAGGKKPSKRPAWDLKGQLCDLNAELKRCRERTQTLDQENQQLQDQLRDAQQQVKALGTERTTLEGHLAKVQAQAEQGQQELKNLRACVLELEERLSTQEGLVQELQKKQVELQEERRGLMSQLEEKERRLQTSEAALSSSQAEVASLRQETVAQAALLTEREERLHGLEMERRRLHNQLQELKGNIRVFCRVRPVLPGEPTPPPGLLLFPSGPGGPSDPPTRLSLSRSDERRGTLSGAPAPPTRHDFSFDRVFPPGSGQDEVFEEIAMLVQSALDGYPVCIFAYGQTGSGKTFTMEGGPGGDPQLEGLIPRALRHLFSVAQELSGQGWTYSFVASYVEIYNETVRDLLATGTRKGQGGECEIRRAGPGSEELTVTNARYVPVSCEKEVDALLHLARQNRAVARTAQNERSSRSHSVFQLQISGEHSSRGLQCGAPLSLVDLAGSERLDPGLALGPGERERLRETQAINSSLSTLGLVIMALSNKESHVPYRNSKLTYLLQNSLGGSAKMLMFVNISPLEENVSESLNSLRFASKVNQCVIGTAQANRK
Method: as §4

[4] = system: centrosome-amplified (4NCA) DLD1 cells; experiment: Multipolar spindle assay (4NCA cell line); format: cell-based, human
Text: as §1, §2, §3

[5] = Kinetic aqueous solubility (KSol), HPLC-UV; format: physicochemical; conditions: PBS buffer pH 7.4, 100 μM solution with 1% DMSO, HPLC with UV detection
[6] = LE = −1.4Log(IC50 [M])/number of non-hydrogen atoms (Table 1)
[7] = LLE = −Log(IC50 [M]) – cLogP (MoKa) (Table 1)
[8] = preformed microtubules, 3 μM ATP, mean (±SD) n ≥ 3 (Table 4), read-out: HSET ADP-Glo IC50
[9] = preformed microtubules, 3 μM ATP, mean (±SD) n ≥ 3, >200 from a single determination (Table 1), read-out: HSET ADP-Glo IC50
[10] = 15 μM, 4NCA DLD1 cells (Table 4)
[11] = 15 µM, 4NCA cells, supplementary CSV
[12] = LE = −1.4Log(IC50 [M])/number of non-hydrogen atoms (Table 2)
[13] = LLE = −Log(IC50 [M]) – cLogP (MoKa) (Table 2)
[14] = preformed microtubules, 3 μM ATP, mean (±SD) n ≥ 3, >200 from a single determination (Table 2), read-out: HSET ADP-Glo IC50
[15] = preformed microtubules, 3 μM ATP, mean (±SD) n ≥ 3 (37 n = 2, 38 single determination) (Table 3), read-out: HSET ADP-Glo IC50

With `CCOC(=O)c1sc(NC(=O)CCNC(=O)c2cccc(C)c2)nc1C` [Compound 2, Ethyl 4-Methyl-2-(3-(3-methylbenzamido)propanamido)thiazole-5-carboxylate] the “% Multipolarity above baseline @ 15 mM (4N cells)” value ([1]; 15 μM) was 1%, the “% multipolarity above baseline @ 15 μM (4N cells)” value [1] was 1% and the IC50 [2] was over 200 µM. For the same compound, the inhibition at 200 µM ([2]; top concentration of 200 μM) was 10%, the “ligand efficiency (LE)” value [3] was 0.30 and the “lipophilic ligand efficiency (LLE)” value [3] was 2.5. The IC50 ([3]; ATP concentration of 3 μM, read-out: HSET IC50) was 2700 nM, the IC50 ([3]; ATP concentration of 150 μM, read-out: HSET IC50 at higher ATP concentration) was 7100 nM and the LE [3, 6] was 0.30. It also gave an LLE [3, 7] of 2.5, an IC50 [3, 8] of 2730 nM and an IC50 [3, 9] of 2730 nM. The “% multipolarity above baseline @ 15 μM (4NCA cells)” value [4, 10] was 0% and the “% multipolarity above baseline @ 15 μM (4NCA cells)” value [4, 11] was 0%.

For `CCOC(=O)c1sc(NC(=O)CCNC(=O)c2cccc(-c3noc(C)n3)c2)nc1C` [Compound 13, Ethyl 4-Methyl-2-(3-(3-(5-methyl-1,2,4-oxadiazol-3-yl)benzamido)propanamido)thiazole-5-carboxylate], the “% Multipolarity above baseline @ 15 mM (4N cells)” value ([1]; 15 μM) was 1%, the “effect on multipolar mitoses (4N), in words” value ([1]; 15 μM, non-centrosome amplified DLD1 (4N) cell line) was “no increases in multipolar mitoses” and the “% multipolarity above baseline @ 15 μM (4N cells)” value [1] was 1%. For the same compound, the IC50 [2] was over 200 µM, the LE [3, 6] was 0.33 and the LLE [3, 7] was 4.6. For the same compound, the IC50 [3, 8] was 63 nM, the IC50 [3, 9] was 63 nM and the “% multipolarity above baseline @ 15 μM (4NCA cells)” value [4, 10] was 9%. The “% multipolarity above baseline @ 15 μM (4NCA cells)” value [4, 11] was 9% and the “increase in mitotic spindle multipolarity (4NCA)” value ([4]; 15 μM, centrosome-amplified (4NCA) DLD1 cell line) was about 10%.

Work on `CCCOC(=O)c1cc(NC(=O)CCNC(=O)c2cccc(-c3noc(C)n3)c2)nn1C` [Compound 28, Propyl 1-Methyl-3-(3-(3-(5-methyl-1,2,4-oxadiazol-3-yl)benzamido)propanamido)-1H-pyrazole-5-carboxylate] yielded an LE [3, 12] of 0.30, an LLE [3, 13] of 4.7 and an IC50 [3, 14] of 157 nM.

In the case of `CCOC(=O)c1nc(NC(=O)CCNC(=O)c2cccc(-c3noc(C)n3)c2)cn1C` [Compound 29, Ethyl 1-Methyl-4-(3-(3-(5-methyl-1,2,4-oxadiazol-3-yl)benzamido)propanamido)-1H-imidazole-2-carboxylate], the “HSET inhibitory activity (in words)” value ([3]; HSET ADP-Glo) is reported as “no HSET inhibition” and the IC50 [3, 14] is reported as over 200000 nM.

`CCOC(=O)c1sc(NC(=O)C[C@H](C)NC(=O)c2cccc(-c3noc(C)n3)c2)nc1C` [Compound 30, Ethyl 4-Methyl-2-[[(3S)-3-[[3-(5-methyl-1,2,4-oxadiazol-3-yl)benzoyl]amino]butanoyl]amino]thiazole-5-carboxylate] gave an LE [3, 12] of 0.32, an LLE [3, 13] of 4.1 and an IC50 [3, 14] of 61 nM.

In the case of `CCOC(=O)c1sc(NC(=O)C[C@@H](C)NC(=O)c2cccc(-c3noc(C)n3)c2)nc1C` [Compound 31, Ethyl 4-Methyl-2-[[(3R)-3-[[3-(5-methyl-1,2,4-oxadiazol-3-yl)benzoyl]amino]butanoyl]amino]thiazole-5-carboxylate], the LE [3, 12] is reported as 0.29, the LLE [3, 13] is reported as 3.4 and the IC50 [3, 14] is reported as 288 nM.

For `CCCOC(=O)c1sc(NC(=O)C[C@H](CCCN)NC(=O)c2cccc(-c3noc(C)n3)c2)nc1C` [Compound 33, Propyl (S)-2-(6-Amino-3-(3-(5-methyl-1,2,4-oxadiazol-3-yl)benzamido)hexanamido)-4-methylthiazole-5-carboxylate], the IC50 [3, 15] was 13 nM and the KSol data [5] was over 90 µM.

For `CCCOC(=O)c1sc(NC(=O)C[C@@H](CCCNC)NC(=O)c2cccc(-c3noc(C)n3)c2)nc1C` [Compound 34, Propyl (R)-4-Methyl-2-(3-(3-(5-methyl-1,2,4-oxadiazol-3-yl)benzamido)-6-(methylamino)hexanamido)thiazole-5-carboxylate], the IC50 [3, 15] was 260 nM and the KSol data [5] was over 90 µM.

`CCCOC(=O)c1sc(NC(=O)C[C@H](CCCN(C)CCOCCOCCNC(=O)O[C@@H]2CC/C=C/CCC2)NC(=O)c2cccc(-c3noc(C)n3)c2)nc1C` [Compound 39, Propyl 2-((S)-1-(((S,E)-Cyclooct-4-en-1-yl)oxy)-11-methyl-15-(3-(5-methyl-1,2,4-oxadiazol-3-yl)benzamido)-1-oxo-5,8-dioxa-2,11-diazaheptadecan-17-amido)-4-methylthiazole-5-carboxylate] showed an IC50 [3, 15] of 107 nM and a KSol data [5] of 53 µM.
